tested on: Bovine cardiac myofibrils; test: In vitro model of dose-dependent myofibril ATPase modulation (AC1.4, pyruvate kinase/lactate dehydrogenase-coupled ATPase assay at pCa25); assay type: biochemical; conditions: concentration at which ATPase activity was 1.4-fold higher than the bottom of the dose curve, mean of a minimum of two independent tests
Procedure, shortened: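 Absorbance at 340 nm tracked ATP hydrolysis through pyruvate kinase/lactate dehydrogenase coupling (0.5 mM NADH, 1.5 mM PEP). Myofibrils from detergent-homogenized bovine heart, 1 mM ATP, pH 6.80, EGTA/CaCl2 buffering. Dose-response curves fitted with a four-parameter Hill equation.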

Row | AC1.4 | Structure (SMILES)
1 | 0.7956 µM | CN(C)S(=O)(=O)c1cccc(C(=O)N2CCC[C@@H]2C(=O)NCc2ccc(Cl)c(F)c2)c1 [Example 303, N-(4-chloro-3-fluorobenzyl)-1-(3-(dimethylsulfamoyl)benzoyl)-D-prolinamide]
2 | 0.8013 µM | N#CC1CN(S(=O)(=O)c2cccc(C(=O)N3CCC[C@@H]3C(=O)N[C@@H](CO)c3ccc(Cl)cc3)c2)C1 [Example 305, N-((1R)-1-(4-chlorophenyl)-2-hydroxyethyl)-1-(3-((3-cyano-1-azetidinyl)sulfonyl)benzoyl)-D-prolinamide]
3 | 0.8057 µM | O=C(O)CS(=O)(=O)c1cccc(C(=O)N2[C@@H](C(=O)N[C@@H](c3cc(F)c(C(F)(F)F)cc3F)C3CC3)C[C@H]3C[C@H]32)c1 [Example 306, ((3-(((1R,3R,5R)-3-(((R)-cyclopropyl(2,5-difluoro-4-(trifluoromethyl)phenyl)methyl)carbamoyl)-2-azabicyclo[3.1.0]hexan-2-yl)carbonyl)phenyl)sulfonyl)acetic acid]
4 | 0.8008 µM | CS(=O)(=O)c1cccc(C(=O)N2[C@@H](C(=O)N[C@@H](c3ccc(C(F)(F)F)c(F)c3)C3CC3)C[C@H]3C[C@H]32)c1 [Example 307, (1R,3R,5R)-N-((R)-cyclopropyl(3-fluoro-4-(trifluoromethyl)phenyl)methyl)-2-(3-(methylsulfonyl)benzoyl)-2-azabicyclo[3.1.0]hexane-3-carboxamide]
5 | 0.8085 µM | N#CC1CN(S(=O)(=O)N2CCC[C@H](C(=O)N3CCC[C@@H]3C(=O)N[C@@H](c3ccc(Cl)cc3)C(F)(F)F)C2)C1 [Example 308, N-((1S)-1-(4-chlorophenyl)-2,2,2-trifluoroethyl)-1-(((3S)-1-((3-cyano-1-azetidinyl)sulfonyl)-3-piperidinyl)carbonyl)-D-prolinamide]
6 | 0.822 µM | COc1cc(C(F)(F)F)ccc1[C@H](NC(=O)[C@H]1C[C@H]2C[C@H]2N1C(=O)c1cccc(S(C)(=O)=O)c1)C1CC1 [Example 309, (1R,3R,5R)-N-((R)-cyclopropyl(2-methoxy-4-(trifluoromethyl)phenyl)methyl)-2-(3-(methylsulfonyl)benzoyl)-2-]
7 | 0.8061 µM | O=C(N[C@@H](c1ccc(C(F)(F)F)c(F)c1)C1CC1)[C@H]1C[C@H]2C[C@H]2N1C(=O)c1cccc(S(=O)(=O)C2CC2)c1 [Example 310, (1R,3R,5R)—N—((R)-cyclopropyl(3-fluoro-4-(trifluoromethyl)phenyl)methyl)-2-(3-(cyclopropylsulfonyl)benzoyl)-2-azabicyclo[3.1.0]hexane-3-carboxamide]
8 | 0.8393 µM | O=C(NCc1ccc(C(F)(F)F)cc1)[C@H]1CCCN1C(=O)[C@H]1CCCN(S(=O)(=O)N2CC(OCC(F)F)C2)C1 [Example 311, 1-(((3S)-1-((3-(2,2-difluoroethoxy)-1-azetidinyl)sulfonyl)-3-piperidinyl)carbonyl)-N-(4-(trifluoromethyl)benzyl)-D-prolinamide]
9 | 0.841 µM | O=C(NCc1ccc(C(F)(F)F)cc1)[C@H]1CC2(CC2)CN1C(=O)c1cccc(S(=O)(=O)N2CC3(CC3)C2)c1 [Example 312, (6R)-5-((3-(5-azaspiro[2.3]hex-5-ylsulfonyl)phenyl)carbonyl)-N-(4-(trifluoromethyl)benzyl)-5-azaspiro[2.4]heptane-6-carboxamide]
10 | 0.8424 µM | N#CC1CN(S(=O)(=O)N2CCC[C@H](C(=O)N3CCC[C@@H]3C(=O)NCc3cc(F)cc(Cl)c3)C2)C1 [Example 313, N-(3-chloro-5-fluorobenzyl)-1-(((3S)-1-((3-cyano-1-azetidinyl)sulfonyl)-3-piperidinyl)carbonyl)-D-prolinamide]
11 | 0.8574 µM | CC(C)N(C)S(=O)(=O)c1cccc(C(=O)N2CCC[C@@H]2C(=O)NCc2ccc(C(F)(F)F)cc2)c1 [Example 315, 1-(3-(methyl(2-propanyl)sulfamoyl)benzoyl)-N-(4-(trifluoromethyl)benzyl)-D-prolinamide]
12 | 0.8325 µM | CS(=O)(=O)c1cccc(C(=O)N2[C@@H](C(=O)N[C@@H](c3cc(F)c(Cl)cc3F)C3(O)CC3)C[C@H]3C[C@H]32)c1 [Example 316, (1R,3R,5R)-N-((S)-(4-chloro-2,5-difluorophenyl)(1-hydroxycyclopropyl)methyl)-2-(3-(methylsulfonyl)benzoyl)-2-azabicyclo[3.1.0]hexane-3-carboxamide]
13 | 0.8619 µM | C[C@H](C(=O)N[C@H](C)c1ccc(Cl)cc1F)N(C)C(=O)[C@H]1CCCN(S(=O)(=O)N2CC(C#N)C2)C1 [Example 317, (3S)-N-((2R)-1-(((1R)-1-(4-chloro-2-fluorophenyl)ethyl)amino)-l-oxo-2-propanyl)-1-((3-cyano-1-azetidinyl)sulfonyl)-N-methyl-3-piperidinecarboxamide]
14 | 0.8652 µM | CS(=O)(=O)c1cc(C(=O)N2CCCC[C@@H]2C(=O)N[C@@H](c2cc(F)c(Cl)cc2F)C2CC2)ccn1 [Example 318, (2R)-N-((R)-(4-chloro-2,5-difluorophenyl)(cyclopropyl)methyl)-1-((2-(methylsulfonyl)-4-pyridinyl)carbonyl)-2-piperidinecarboxamide]
15 | 0.8692 µM | N#C[C@@H]1CCN(S(=O)(=O)N2CCC[C@H](C(=O)N3CCC[C@@H]3C(=O)NCc3ccc(C(F)(F)F)cc3)C2)C1 [Example 319, 1-(((3S)-1-(((3R)-3-cyano-1-pyrrolidinyl)sulfonyl)-3-piperidinyl)carbonyl)-N-(4-(trifluoromethyl)benzyl)-D-prolinamide]
16 | 0.8613 µM | CS(=O)(=O)c1cccc(C(=O)N2CC(F)(F)C[C@@H]2C(=O)N[C@@H](c2ccc(C(F)(F)F)cc2F)C2CC2)c1 [Example 320, N-((R)-cyclopropyl(2-fluoro-4-(trifluoromethyl)phenyl)methyl)-4,4-difluoro-1-(3-(methylsulfonyl)benzoyl)-D-prolinamide]
17 | 0.8725 µM | C[C@@H](NC(=O)[C@H]1CCCN1C(=O)[C@H]1CCCN(S(=O)(=O)N2CC(S(C)(=O)=O)C2)C1)c1ccc(F)cc1F [Example 321, N-((1R)-1-(2,4-difluorophenyl)ethyl)-1-(((3S)-1-((3-(methylsulfonyl)-1-azetidinyl)sulfonyl)-3-piperidinyl)carbonyl)-D-prolinamide]
18 | 0.8731 µM | O=C(N[C@@H](c1ccc(C(F)(F)F)cc1F)C1CC1)[C@H]1CCCCN1C(=O)c1cccc(C(O)(O)C(F)(F)F)c1 [Example 322, (2R)-N-((R)-cyclopropyl(2-fluoro-4-(trifluoromethyl)phenyl)methyl)-1-(3-(2,2,2-trifluoro-1,1-dihydroxyethyl)benzoyl)-2-piperidinecarboxamide]
19 | 0.8707 µM | Cc1cc(C(=O)N2[C@@H](C(=O)N[C@@H](c3ccc(C(F)(F)F)cc3F)C3COC3)C[C@H]3C[C@H]32)cc(S(C)(=O)=O)c1 [Example 323, (1R,3R,5R)-N-((R)-(2-fluoro-4-(trifluoromethyl)phenyl)(3-oxetanyl)methyl)-2-(3-methyl-5-(methylsulfonyl)benzoyl)-2-azabicyclo[3.1.0]hexane-3-carboxamide]
20 | 0.8782 µM | N#CC1CN(S(=O)(=O)c2cccc(C(=O)N3CCc4ccccc4C3C(=O)NCc3ccc(C(F)(F)F)cc3)c2)C1 (centres unmarked) [Example 324, 2-(3-((3-cyanoazetidin-1-yl)sulfonyl)benzoyl)-N-(4-(trifluoromethyl)benzyl)-1,2,3,4-tetrahydroisoquinoline-1-carboxamide]
